Measurements taken from patent EP4656642A1, “ESTROGEN RECEPTOR PROTEOLYSIS TARGETING CHIMERA COMPOUND AND USE THEREOF” (GAN & LEE PHARM CO., LTD, priority 2023, dated 2024).

Tests used:
Format in all cases: cell-based
MCF-7 cells = test: Inhibition of cell proliferation of MCF-7 cells (CCK-8, 9 days); conditions: treated for 9 days, CCK-8 kit (Table 6)
Summary of the method: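 Read-out was CCK-8 viability after 9-day continuous exposure (37°C, 5% CO2) of MCF-7 cells plated at 800/well in 10% FBS DMEM across several compound concentrations. Values are proliferation IC50s.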

ERα [1] = target: T1, ERα (Homo sapiens, UniProt P03372); test: Degradation of ERα in MCF-7 cells (immunoblotting, 4 h)
T1 sequence (P03372 1-595): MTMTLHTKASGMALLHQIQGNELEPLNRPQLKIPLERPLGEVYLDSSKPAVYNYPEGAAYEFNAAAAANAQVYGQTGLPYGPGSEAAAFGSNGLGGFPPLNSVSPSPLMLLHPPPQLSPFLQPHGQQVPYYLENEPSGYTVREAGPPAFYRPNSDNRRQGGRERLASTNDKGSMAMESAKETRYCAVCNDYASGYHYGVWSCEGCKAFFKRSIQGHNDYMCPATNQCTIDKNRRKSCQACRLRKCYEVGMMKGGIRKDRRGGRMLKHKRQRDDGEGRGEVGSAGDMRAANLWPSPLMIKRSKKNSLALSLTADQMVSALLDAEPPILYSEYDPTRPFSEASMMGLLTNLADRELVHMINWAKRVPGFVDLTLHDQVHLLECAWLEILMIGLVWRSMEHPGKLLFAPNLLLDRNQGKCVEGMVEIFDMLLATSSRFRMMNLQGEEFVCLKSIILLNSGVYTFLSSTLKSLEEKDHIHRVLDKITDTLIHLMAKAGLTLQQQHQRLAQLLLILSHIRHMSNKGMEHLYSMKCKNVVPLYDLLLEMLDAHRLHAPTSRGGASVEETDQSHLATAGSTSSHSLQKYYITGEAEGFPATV
Summary of the method: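 Degradation rate reflects ERα band intensity, corrected to an internal reference protein, relative to control. Values come from Western blotting of lysates from MCF-7 cells exposed 4 h at 37°C to compounds at final concentrations of 0.15-1000nM.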

ERα [2] = target: T1, ERα; test: Degradation of ERα in T-47D cells (immunoblotting, 4 h); set-up: host or cells: T-47D
Summary of the method: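 ERα protein levels were assessed by immunoblot of RIPA lysates (with protease inhibitor) after 4 h exposure at 37°C. Compound was added in DMSO to T-47D cells at final concentrations of 0.15-1000 nM.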

SMILES | IC50 (MCF-7 cells) | Degradation rate (%) of ERα in MCF-7 cells (ERα [1]; 1nM compound) | Degradation rate (%) of ERα in MCF-7 cells (ERα [1]; 10nM compound) | Degradation rate (%) of ERα in T-47D cells (ERα [2]; 1nM compound) | Degradation rate (%) of ERα in T-47D cells (ERα [2]; 10nM compound)
CN(C(=O)CN1CCC2(CC1)COc1c2ccc2c1CN(C1CCC(=O)NC1=O)C2=O)C1CC2(CCN(c3ccc([C@@H]4c5ccc(O)cc5CC[C@@H]4c4ccccc4)cc3)CC2)C1 (stereo partly drawn) [H47] | 363 nM | 39% | 76% | 49% | 82%
CN(CC(=O)N1CCC2(CC1)COc1c2ccc2c1CN(C1CCC(=O)NC1=O)C2=O)C1CC2(CCN(c3ccc([C@@H]4c5ccc(O)cc5CC[C@@H]4c4ccccc4)cc3)CC2)C1 (stereo partly drawn) [H48] | 1260 nM | 38% | 71% | 53% | 78%
CN(C(=O)CN1CCC2(CC1)COc1c2ccc2c1CN(C1CCC(=O)NC1=O)C2=O)C1CCC2(CC1)CN(c1ccc([C@@H]3c4ccc(O)cc4CC[C@@H]3c3ccccc3)cc1)C2 (stereo partly drawn) [H49] | 5.08 nM | 50% | 71% | 48% | 77%
CN(CC(=O)N1CCC2(CC1)COc1c2ccc2c1CN(C1CCC(=O)NC1=O)C2=O)C1CCC2(CC1)CCN(c1ccc([C@@H]3c4ccc(O)cc4CC[C@@H]3c3ccccc3)cc1)CC2 (stereo partly drawn) [H51] | 153 nM | 46% | 75% | 49% | 79%
CN(CC(=O)N1CCC2(CC1)COc1c2ccc2c1CN(C1CCC(=O)NC1=O)C2=O)C1CCC2(CC1)CN(c1ccc([C@@H]3c4ccc(O)cc4CC[C@@H]3c3ccccc3)cc1)C2 (stereo partly drawn) [H52] | 5320 nM | 53% | 61% | 49% | 74%
O=C1CCC(N2Cc3c(ccc4c3OCC43CCN(C[C@H]4CC[C@@H](C#Cc5ccc([C@@H]6c7ccc(O)cc7CC[C@@H]6c6ccccc6)cc5)CC4)CC3)C2=O)C(=O)N1 (stereo partly drawn) [H53] | 41.9 nM | 10% | 14% | 5% | 35%
O=C1CCC(N2Cc3c(ccc4c3OCC43CCN(CC(=O)N(CC4CC4)C4CC5(CCN(c6ccc([C@@H]7c8ccc(O)cc8CC[C@@H]7c7ccccc7)cc6)CC5)C4)CC3)C2=O)C(=O)N1 (stereo partly drawn) [H54] | 260 nM | 11% | 44% | 24% | 60%
CCN(C(=O)CN1CCC2(CC1)COc1c2ccc2c1CN(C1CCC(=O)NC1=O)C2=O)C1CC2(CCN(c3ccc([C@@H]4c5ccc(O)cc5CC[C@@H]4c4ccccc4)cc3)CC2)C1 (stereo partly drawn) [H55] | 199 nM | 28% | 62% | 56% | 83%
CN(C(=O)CN1CCC2(CC1)COc1cc3c(cc12)CN(C1CCC(=O)NC1=O)C3=O)C1CCC2(CC1)CN(c1ccc([C@@H]3c4ccc(O)cc4CC[C@@H]3c3ccccc3)cc1)C2 (stereo partly drawn) [H56] | 2250 nM | -5% | 21% | 24% | 47%
C[C@@H]1Cc2c(ccc3[nH]ncc23)C(c2ccc(N3CCC4(CC3)CC(N3CC[C@@H](N5CCC6(CC5)COc5c6ccc6c5CN(C5CCC(=O)NC5=O)C6=O)[C@@H](F)C3)C4)cn2)N1CC(F)(F)F (stereo partly drawn) [H58] | 2320 nM | 50% | 70% | 53% | 84%
O=C1CCC(N2Cc3c(ccc4c3OCC43CCN(CC(=O)N4CCC(Oc5ccc([C@@H]6c7ccc(O)cc7CC[C@@H]6c6ccccc6)cc5)CC4)CC3)C2=O)C(=O)N1 (stereo partly drawn) [H59] | 7360 nM | 40% | 34% | 61% | 46%
O=C1CCC(N2Cc3c(ccc4c3OCC43CCN(C(=O)CN4CCC(Oc5ccc([C@@H]6c7ccc(O)cc7CC[C@@H]6c6ccccc6)cc5)CC4)CC3)C2=O)C(=O)N1 (stereo partly drawn) [H60] | 106 nM | 38% | 35% | 41% | 37%
